# Values joined by “and” are separate entries in the source; they are usually repeats but may differ in a detail not shown here. Equal entries are not always repeated.
# Key:
# [1] = test system: CHO cells expressing TRU-016; experiment: Culturing CHO host cells with carbohydrate modifier: cell growth and viability; assay type: cell-based, Chinese hamster; details: castanospermine up to 1000 μM, all time periods up to 144 hours
# Description: For shake flask runs, log phase host cells were seeded in shake flasks at 100,000 cells/ml with carbohydrate modifier at the concentration to be tested, and optionally with methotrexate (MTX) @ 50 nM
# Cells were seeded at 3×10E6/mL in 1350 mL of Ex-Cell 302 culture media (SATC Biosciences; with added non-essential amino acids, pyrucate, L-glutamine, pen/strep, HT Supplement and insulin, all from Invitrogen) at t=0 and brought to 5 L total volume at T>=72 hours. The cells were incubated at 37° C. and 5% carbon dioxide and monitored for growth and viability daily starting at day 6-7. Supernatants were typically harvested at day 10-12 when cell viability dropped below 60%.
# Na-Azide was added to 0.02%, cells were removed by centrifugation and supernatant was filter sterilized through a 0.22 uM filter. Some assays described in other examples herein were performed on the supernatants as indicated, while other assays were performed on material that underwent further protein A purification. […] Cells were incubated at 37° C. and 5% carbon dioxide and monitored daily for growth and viability. […]
# [2] = test system: CD16 (low affinity allele); experiment: Binding to soluble FcγR-MIg fusion on WIL2-S cells, flow cytometry; details: 0, 2, 5, 10, 30 or 100 μg/mL castanospermine in culture media
# Description: The immunoglycoproteins produced according to Example 2 were assayed in vitro for binding to soluble Ig-fusion versions of Fcγ receptors, in which the extracellular domain of a receptor is fused to murine IgG2a Fc.
# The soluble Fey receptor materials were generated by fusing the extracellular domain of Fcγ Receptors I (Genbank Acc. No. BC032634), IIa (Genbank Acc. No. NM_021642), IIb (Genbank Acc. No. BC031992), and III-V158 (high affinity allele) (Genbank Acc. No. X07934) and III-F158 (low affinity allele), respectively, to a murine IgG2a Fc with a Pro to Ser mutation at residue 238 (MIgG2aP238S). For both forms of Fcγ RIII (CD16), an HE4 leader was cloned onto CD16 amino acids 1-178 and then fused to MIgG2aP238S.
# The assays were carried out as follows. […] The cells were then incubated with the desired FcγR-MIg fusion in the same diluent at a concentration of 1 μg/ml on ice for 45 minutes.
# The complexes (WIL2-S cells/SMIP/FcγR-MIg) were then incubated with PE conjugated AffiniPure F(Ab')2 Goat Anti-Mouse IgG [Jackson Immunoresearch] (a mouse Fc-specific antibody with minimal cross reactivity with human Fc) at a 1:100 dilution. The cells were analyzed by one-color flow cytometry on a FACsCalibur using CellQuest software (Becton Dickinson).
# [3] = test system: CHO cells transfected with TRU-016; experiment: Effect of castanospermine concentration on cell viability, density and specific protein production of TRU-016; assay type: cell-based, Chinese hamster; details: for Viability at Harvest (%): harvest day 8, duplicate flasks, listed as CS
# Description: Prior to initiation of the experiments, CHO cells transfected with TRU-016 were grown in shake flasks in Ex-Cell™ 302 CHO serum-free media (SAFC Biosciences) supplemented with 1× non-essential amino acids (MediaTech), 1× sodium pyruvate (MediaTech), 4 mM L-glutamine (MediaTech), 500 nM methotrexate (MP Biomedicals) and 1 mg/L recombinant insulin (Recombulin—GIBCO/Invitrogen Corp.) at 37° C. and 5% carbon dioxide in a humidified incubator. A 200 mM stock concentration of castanospermine (Alexis Biochemicals) was prepared by dilution of the castanospermine in sterile, distilled/deionized water (MediaTech) and filtration through a 13 mm Acrodisc® with a 0.2 μm HT Tuffryn membrane (Pall Corporation). Stock solution was aliquoted into sterile, O-ringed, 0.5 mL microcentrifuge tubes (Fisherbrand, Fisher Scientific) and frozen at −20° C. Approximately 1 hour prior to initiation of experiments, needed aliquots were thawed at room temperature and the contents of each vial mixed well by vortexing.
# For each experiment, cells in log phase growth were seeded in the above medium into a total volume of 60 mL in 250 mL shaker flasks at a density of 200,000 cells/mL and CS added at the concentration to be tested. Final CS concentrations of 800 μM, 400 μM, 200 μM, 100 μM, 50 μM, 25 μM and 0 μM were each tested in duplicate flasks. All cultures were incubated at 37° C. and 5% carbon dioxide in a humidified incubator and monitored at least every other day for viable cell density and overall cell viability.
# Cultures were harvested on day 8 when overall cell viability was 50-70% (Expt. 1) and 30-50% (Expt. 2). Cells and cellular debris were removed by centrifugation in a Sorvall Super T21 at 3000 rpm for 20 minutes after which the supernatant was sterile filtered through a Millipore Steriflip unit with a 0.22 μm Millipore Express Plus membrane and stored at 2-8° C. until purification.
compound,measurement,setting,value
O[C@H]1[C@H](O)[C@@H](O)CN2CC[C@H](O)[C@H]12 [castanospermine],cell counts,[1],did not affect
same,percent cell viability,[1],did not affect
same,CD16 binding (geometric mean fluorescence intensity) of TRU-015 purified protein produced by CHO cells cultured with the modifier,[2],dose-dependent increase
same,reduction of TRU-016 protein production,[3]; 400 μm CS,approximately 40%
same,Viability at Harvest (%),[3]; CS 25 μM,53.9% and 54.5%
same,Viability at Harvest (%),[3]; CS 50 μM,49.4% and 50.0%
same,Viability at Harvest (%),[3]; CS 100 μM,54.4% and 54.6%
same,Viability at Harvest (%),[3]; CS 200 μM,55.5% and 51.1%
same,Viability at Harvest (%),[3]; CS 400 μM,65.7% and 68.2%
same,Viability at Harvest (%),[3]; CS 800 μM,70.6% and 65.2%
same,cell viability and growth as indicated by integral cell area (ICA),[3]; CS 25-800 μM,did not appear to be significantly affected
same,immunoglycoprotein production,"[3]; increasing concentrations of castanospermine, 25-800 μM",appeared to reduce
